Assay results: patent US20240270715A1, “INHIBITORS OF TRANSGLUTAMINASES” (ZEDIRA GMBH, priority 2021, published 2024)
pIC50: −log10 of the molar value.

Key:
[1] = molecular target: T1, recombinant human transglutaminase 2 (Homo sapiens, UniProt P21980); assay: Transglutaminase assay: incorporation of dansylcadaverine into dimethylcasein (DCC-assay); type: biochemical; conditions: for pIC50: recombinant human TG2 10 nM, dansylcadaverine/dimethylcasein, read-out: IC50 TG2
T1 sequence (P21980 1-687): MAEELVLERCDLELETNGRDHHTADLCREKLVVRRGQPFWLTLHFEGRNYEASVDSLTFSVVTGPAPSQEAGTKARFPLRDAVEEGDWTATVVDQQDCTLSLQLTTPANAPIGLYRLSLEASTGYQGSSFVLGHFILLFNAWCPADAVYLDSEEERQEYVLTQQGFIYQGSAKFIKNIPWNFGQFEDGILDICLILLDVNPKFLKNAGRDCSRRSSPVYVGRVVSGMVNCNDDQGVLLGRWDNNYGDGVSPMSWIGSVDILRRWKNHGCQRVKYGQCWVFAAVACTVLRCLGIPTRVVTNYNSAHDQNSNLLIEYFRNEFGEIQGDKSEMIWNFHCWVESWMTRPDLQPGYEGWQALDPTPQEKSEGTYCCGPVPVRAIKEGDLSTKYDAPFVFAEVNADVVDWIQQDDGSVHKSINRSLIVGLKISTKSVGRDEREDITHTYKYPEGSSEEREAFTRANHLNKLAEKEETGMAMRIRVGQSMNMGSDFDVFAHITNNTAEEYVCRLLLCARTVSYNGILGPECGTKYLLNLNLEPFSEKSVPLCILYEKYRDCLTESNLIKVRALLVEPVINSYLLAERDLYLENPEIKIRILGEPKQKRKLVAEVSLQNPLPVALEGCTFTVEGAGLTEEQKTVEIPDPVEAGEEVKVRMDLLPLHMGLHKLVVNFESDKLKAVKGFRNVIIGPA
Procedure, shortened: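 Recombinant human TG2 (10 nM final) incorporates dansylcadaverine (16.7 μM) into N,N-dimethylcasein (4 μM) in Tris-HCl buffer, pH 8.0, with 10 mM CaCl2 and 10 mM glutathione. Fluorescence (λex 330, λem 500 nm) followed 30 min. The slope between 20–30 min gives activity versus DMSO control, and IC50 comes from the concentration–activity plot.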

[2] = Log D by shake flask method (octanol / PBS pH 7.4, HPLC); type: physicochemical; conditions: octanol / PBS pH 7.4, shake flask; read-out: logD
Procedure, shortened: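 Shake-flask partitioning of compound between octanol and PBS at pH 7.4, with phase concentrations quantified by HPLC. The value reported is Log D.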

[3] = Caco-2 permeability assay (CacoReady kit); type: in vitro ADME; conditions: human
Procedure, shortened: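 Apparent permeability coefficients (Papp) were measured across Caco-2 cell barriers using a ready-to-use kit run per the supplier's protocol. Values serve as a predictor of oral/intestinal bioavailability.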

Row | SMILES | pIC50 [1] | logD [2] | Papp [3] | fold more potent compared to Ref. 4 ([1]; ratio of IC50, compare table 1)
1 | CCNC(=O)C(=O)CC[C@H](NC(=O)C1CN2CCC1CC2)C(=O)Nc1cccn(CC(=O)NC2(C#N)C3CC4CC(C3)CC2C4)c1=O (stereo partly drawn) [Compound I-63, (S)-N1-ethyl-N6-(1-(2-(2-carbonitrileadamantane-2-amino)-2-oxoethyl)-2-oxo-1,2-dihydropyridin-3-yl)-2-oxo-5-((3S,4R)-quinuclidine-3-carboxamido)hexanediamide] | 6.22 to 6.82 | < 1 | < 1 ×10⁻⁶ cm/s | –
2 | CCNC(=O)C(=O)CC[C@H](NC(=O)c1cc(Br)sc1Br)C(=O)Nc1cccn(CC(=O)NC2C3CC4CC(C3)CC2C4)c1=O (stereo partly drawn) [Compound I-47, (S)-2-(2,5-dibromothiophene-3-carboxamido)-N6-ethyl-N1-(1-(2-(2-adamantylamino)-2-oxoethyl)-2-oxo-1,2-dihydropyridin-3-yl)-5-oxohexanediamide] | > 6.82 | 3 to 5 | 1 to 10 ×10⁻⁶ cm/s | –
3 | CCNC(=O)C(=O)CC[C@H](NC(=O)c1cncn1C)C(=O)Nc1cccn(CC(=O)NC23CC4CC(CC(O)(C4)C2)C3)c1=O [Compound I-7, (S)-N1-ethyl-N6-(1-(2-(3-hydroxyadamantane-1-amino)-2-oxoethyl)-2-oxo-1,2-dihydropyridin-3-yl)-5-(1-methyl-1H-imidazole-5-carboxamido)-2-oxohexanediamide] | 5.46 to 6.22 | < 1 | < 1 ×10⁻⁶ cm/s | –
4 | CCNC(=O)C(=O)CC[C@H](NC(=O)c1ccnnc1)C(=O)Nc1cccn(CC(=O)NC2C3CCC2CC3)c1=O (stereo partly drawn) [Compound I-72, (S)-N1-(1-(2-(bicyclo[2.2.1]heptan-7-ylamino)-2-oxoethyl)-2-oxo-1,2-dihydropyridin-3-yl)-N6-ethyl-5-oxo-2-(pyridazine-4-carboxamido)hexanediamide] | 6.22 to 6.82 | < 1 | < 1 ×10⁻⁶ cm/s | –
5 | CCNC(=O)C(=O)CC[C@H](NC(=O)c1nccn1C)C(=O)Nc1cccn(CC(=O)NC23CC4CC(CC(CC)(C4)C2)C3)c1=O [Compound I-16, (S)-N1-ethyl-N6-(1-(2-(3-ethyladamantane-1-amino)-2-oxoethyl)-2-oxo-1,2-dihydropyridin-3-yl)-5-(1-methyl-1H-imidazole-2-carboxamido)-2-oxohexanediamide] | 5.46 to 6.22 | 1 to 3 | < 1 ×10⁻⁶ cm/s | –
6 | CCNC(=O)C(=O)CC[C@H](NC(=O)c1cn[nH]n1)C(=O)Nc1cccn(CC(=O)NC2CC3CCC2CC3)c1=O (stereo partly drawn) [Compound I-74, (2S)-N1-(1-(2-(bicyclo[2.2.2]octan-2-ylamino)-2-oxoethyl)-2-oxo-1,2-dihydropyridin-3-yl)-N6-ethyl-5-oxo-2-(2H-1,2,3-triazole-4-carboxamido)hexanediamide] | 6.22 to 6.82 | < 1 | < 1 ×10⁻⁶ cm/s | –
7 | CCNC(=O)C(=O)CC[C@H](NC(=O)c1sc(Br)cc1C)C(=O)Nc1cccn(CC(=O)NC2C3CC4CC(C3)CC2C4)c1=O (stereo partly drawn) [Compound I-43, (S)-2-(5-bromo-3-methylthiophene-2-carboxamido)-N6-ethyl-N1-(1-(2-(2-adamantylamino)-2-oxoethyl)-2-oxo-1,2-dihydropyridin-3-yl)-5-oxohexanediamide] | > 6.82 | 3 to 5 | 1 to 10 ×10⁻⁶ cm/s | –
8 | CCNC(=O)C(=O)CC[C@H](NC(=O)c1nc(C2(C)CC2)no1)C(=O)Nc1cccn(CC(=O)NC2C3CC4CC2CC(C(N)=O)(C4)C3)c1=O (stereo partly drawn) [Compound I-115, (S)-N1-ethyl-N6-(1-(2-(4-aminoadamantane-1-carboxamide)-2-oxoethyl)-2-oxo-1,2-dihydropyridin-3-yl)-5-(3-(1-methylcyclopropyl)-1,2,4-oxadiazole-5-carboxamido)-2-oxohexanediamide] | 5.46 to 6.22 | < 1 | < 1 ×10⁻⁶ cm/s | –
9 | CCC(CC)CNC(=O)Cn1cccc(NC(=O)[C@H](CCC(=O)C(=O)NC)NC(=O)c2cncn2C)c1=O [Ref. 1, reference compound] | 5.46 to 6.22 | < 1 | < 1 ×10⁻⁶ cm/s | about 15 fold
10 | CCNC(=O)C(=O)CC[C@H](NC(=O)c1cn(C)cn1)C(=O)Nc1cccn(CC(=O)NC23CC4CC(C)(CC(C)(C4)C2)C3)c1=O [Compound I-22, (S)-N1-ethyl-N6-(1-(2-(3,5-dimethyladamantane-1-amino)-2-oxoethyl)-2-oxo-1,2-dihydropyridin-3-yl)-5-(1-methyl-1H-imidazole-4-carboxamido)-2-oxohexanediamide] | 5.46 to 6.22 | 1 to 3 | < 1 ×10⁻⁶ cm/s | –
11 | CCNC(=O)C(=O)CC[C@H](NC(=O)c1cc2ccc(N(C)C)cc2o1)C(=O)Nc1cccn(CC(=O)NC23CC(C2)C3)c1=O [Compound I-109, (S)-N1-(1-(2-(bicyclo[1.1.1]pentan-1-ylamino)-2-oxoethyl)-2-oxo-1,2-dihydropyridin-3-yl)-2-(6-(dimethylamino)benzofuran-2-carboxamido)-N6-ethyl-5-oxohexanediamide] | 6.22 to 6.82 | < 1 | < 1 ×10⁻⁶ cm/s | –
12 | CCNC(=O)C(=O)CC[C@H](NC(=O)c1cc2c(F)c(F)ccc2[nH]1)C(=O)Nc1cccn(CC(=O)NC2C3CC4CC(C3)CC2C4)c1=O (stereo partly drawn) [Compound I-36, (S)-2-(4,5-difluoro-1H-indole-2-carboxamido)-N6-ethyl-N1-(1-(2-(2-adamantylamino)-2-oxoethyl)-2-oxo-1,2-dihydropyridin-3-yl)-5-oxohexanediamide] | > 6.82 | 3 to 5 | 1 to 10 ×10⁻⁶ cm/s | –
13 | CCNC(=O)C(=O)CC[C@H](NC(=O)c1cnn(C)c1)C(=O)Nc1cccn(CC(=O)NC23CC4CC5C2C[C@@H]2C[C@H]5C(C4)[C@H]3C2)c1=O [Compound I-79, (S)-N1-ethyl-N6-(1-(2-(diamantane-1-amino)-2-oxoethyl)-2-oxo-1,2-dihydropyridin-3-yl)-5-(1-methyl-1H-pyrazole-4-carboxamido)-2-oxohexanediamide] | 6.22 to 6.82 | 1 to 3 | < 1 ×10⁻⁶ cm/s | –
14 | CCNC(=O)C(=O)CC[C@H](NC(=O)c1nncs1)C(=O)Nc1cccn(CC(=O)NC23CC(C2)C3)c1=O [Compound I-119, (S)-N1-(1-(2-(bicyclo[1.1.1]pentan-1-ylamino)-2-oxoethyl)-2-oxo-1,2-dihydropyridin-3-yl)-N6-ethyl-5-oxo-2-(1,3,4-thiadiazole-2-carboxamido)hexanediamide] | 6.22 to 6.82 | < 1 | < 1 ×10⁻⁶ cm/s | –
15 | CCNC(=O)C(=O)CC[C@H](NC(=O)c1cc(Br)cs1)C(=O)Nc1cccn(CC(=O)NC2C3CC4CC(C3)CC2C4)c1=O (stereo partly drawn) [Compound I-51, (S)-2-(4-bromothiophene-2-carboxamido)-N6-ethyl-N1-(1-(2-(2-adamantylamino)-2-oxoethyl)-2-oxo-1,2-dihydropyridin-3-yl)-5-oxohexanediamide] | > 6.82 | 3 to 5 | 1 to 10 ×10⁻⁶ cm/s | –
16 | CCNC(=O)C(=O)CC[C@H](NC(=O)c1c(C)noc1C)C(=O)Nc1cccn(CC(=O)NC2C3CCCC2CC3)c1=O (stereo partly drawn) [Compound I-91, (2S)-N1-(1-(2-(bicyclo[3.2.1]octan-8-ylamino)-2-oxoethyl)-2-oxo-1,2-dihydropyridin-3-yl)-2-(3,5-dimethylisoxazole-4-carboxamido)-N6-ethyl-5-oxohexanediamide] | 6.22 to 6.82 | < 1 | 1 to 10 ×10⁻⁶ cm/s | –
17 | CCNC(=O)C(=O)CC[C@H](NC(=O)c1ccc2c(c1)CC(=O)NC2)C(=O)Nc1cccn(CC(=O)NC2(C(=O)O)C3CC4CC2CC(C(F)(F)F)(C4)C3)c1=O (stereo partly drawn) [Compound I-105, (S)-N1-ethyl-N6-(1-(2-(2-carboxy-2-amino-5-(trifluoromethyl)adamantane)-2-oxoethyl)-2-oxo-1,2-dihydropyridin-3-yl)-2-oxo-5-(3-oxo-1,2,3,4-tetrahydroisoquinoline-6-carboxamido)hexanediamide] | 5.46 to 6.22 | < 1 | < 1 ×10⁻⁶ cm/s | –
18 | CCNC(=O)C(=O)CC[C@H](NC(=O)c1cncn1C)C(=O)Nc1cccn(CC(=O)NC23CC4CC(C2)C(F)(F)C(C4)C3)c1=O [Compound I-12, (S)-N1-ethyl-N6-(1-(2-(4,4-difluoroadamantane-1-amino)-2-oxoethyl)-2-oxo-1,2-dihydropyridin-3-yl)-5-(1-methyl-1H-imidazole-5-carboxamido)-2-oxohexanediamide] | 6.22 to 6.82 | < 1 | < 1 ×10⁻⁶ cm/s | –
